Entries after “also recorded” stand apart in the source; their conditions may differ. Like-named read-outs stand apart in the source and are kept apart here.
Tests used:
[1] = tested on: rms1-10 pea mutant plants; settings: direct application, rms1-10, tested previously, ref De saint Germain et al 2016, cited from earlier work
[2] = target: T1, RMS3 protein (Pisum sativum, UniProt A0A109QYD3); assay: Enzymatic assay with profluorescent probes, RMS3; assay type: biochemical; settings: probe 10 μM; for Cleavage kinetics by RMS3: RMS3 400 nM, 25°C, result in words; for Cleavage of probe by RMS3: protein 0.33 μM
T1 construct: GST; made in house
T1 sequence (A0A109QYD3 1-267): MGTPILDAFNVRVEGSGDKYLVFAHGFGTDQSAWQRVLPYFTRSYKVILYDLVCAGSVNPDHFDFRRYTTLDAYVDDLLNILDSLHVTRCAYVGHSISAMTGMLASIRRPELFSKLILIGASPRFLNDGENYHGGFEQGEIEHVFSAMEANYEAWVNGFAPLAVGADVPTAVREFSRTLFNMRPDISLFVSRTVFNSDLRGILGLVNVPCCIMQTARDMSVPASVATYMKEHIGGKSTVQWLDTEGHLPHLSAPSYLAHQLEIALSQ

[3] = target: T2, AtD14 (Arabidopsis thaliana, UniProt Q9SQR3); assay: Enzymatic assay with profluorescent probes, AtD14; assay type: biochemical; settings: protein 0.33 μM, probe 10 μM
T2 construct: GST; made in house
T2 sequence (Q9SQR3 1-267): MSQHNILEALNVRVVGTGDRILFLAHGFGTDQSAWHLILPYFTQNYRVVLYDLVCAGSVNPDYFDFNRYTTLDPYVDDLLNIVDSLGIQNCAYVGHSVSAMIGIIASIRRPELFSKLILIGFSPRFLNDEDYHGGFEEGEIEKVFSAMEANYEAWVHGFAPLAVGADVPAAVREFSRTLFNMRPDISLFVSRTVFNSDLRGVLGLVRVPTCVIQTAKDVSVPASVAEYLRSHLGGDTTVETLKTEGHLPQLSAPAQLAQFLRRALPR
Description: (§1) The enzyme activity was determined by measuring the release of the fluorescent intensities of each fluorophores resulting from the cleavage of profluorescent probes by RMS3, AtD14, OsD14, and DAD2 proteins in a SPARK M10 in a 96-well format (de Saint Germain et al., [2021a]). In the assay, using an Integra Viaflo 96 robot, 50 μL of a solution of protein at 0.33 μM in same buffer was added simultaneously in all 96 wells to 50 μL of profluorescent substrate solution (at varying concentrations, prepared from a 10 mM stock solution in 100% of DMSO) in PBS (100 mM of phosphate, pH 6.8, 150 mM of NaCl). After a lag time of 15 s, the formation of fluorophores was recorded over 3 h at 15 s intervals at 25°C. […] All experiments were repeated with three technical replicates. The fluorescence of each fluorophore was also determined for each measurement at the same time frame but in the absence of enzyme in order to determine the standard curves. For rapid enzymatic assays (Figure 8A, small panel), the solution of protein was added by the injector of the plate reader and then, the well was immediately read over 5 min with 1 s intervals. Same parameters were used to determine the fluorophore concentration.

[4] = tested on: rms1-10 pea mutant plants; assay: Pea shoot-branching assay by direct application on the bud, rms1-10; assay type: in vivo, Pisum sativum; settings: for Bioactivity on shoot branching inhibition (bud development): result in words; for Length of bud at node 3 /branch: direct application, rms1-10, 10 days after treatment, mean per replicate
Description: (§2) Pea (Pisum sativum) branching mutant plants used in this study were described previously (Rameau et al., [1997]). The SL biosynthesis rms1-10 (M3T-884) and SL response rms3-4 (M2T-30) mutants were obtained from the dwarf cv. Térèse. Plants were grown in a greenhouse under long days as described by Braun et al. ([2012]).
(§3) The compounds to be tested were applied directly to the axillary bud with a micropipette as 10 μL of a solution containing 0.1% of acetone with 2% of polyethylene glycol 1,450, 50% of ethanol, and 0.4% of DMSO. The control 0 is the treatment with 0.1% of DMSO without compound. A total of 24 plants were sown per treatment in trays (2 repetitions of 12 plants). The treatment was done 8 days after sowing, on the axillary bud at node 3. The branches at nodes 1–2 were removed to encourage the outgrowth of axillary buds at nodes above. Nodes were numbered acropetally from the first scale leaf as node 1 and cotyledonary node as node 0. Bud growth at node 3 was measured 10 days after treatment. Plants with damaged main shoot apex or showing a dead white treated bud were discarded from the analysis. The SL-deficient rms1-10 pea mutant was used for all experiments and WT Térèse as control. SL-perceived rms3-4 pea mutant was used to test that when bioactive, the analog acts via RMS3, and it was also used to check the putative toxicity of probes.

[5] = target: T3, OsD14 (Oryza sativa subsp. japonica, UniProt Q10QA5); assay: Enzymatic assay with profluorescent probes, OsD14; assay type: biochemical, Ozyza sativa; settings: protein 0.33 μM, probe 10 μM
T3 construct: GST (N); made in house
T3 sequence (Q10QA5 with tags, fused parts or gaps): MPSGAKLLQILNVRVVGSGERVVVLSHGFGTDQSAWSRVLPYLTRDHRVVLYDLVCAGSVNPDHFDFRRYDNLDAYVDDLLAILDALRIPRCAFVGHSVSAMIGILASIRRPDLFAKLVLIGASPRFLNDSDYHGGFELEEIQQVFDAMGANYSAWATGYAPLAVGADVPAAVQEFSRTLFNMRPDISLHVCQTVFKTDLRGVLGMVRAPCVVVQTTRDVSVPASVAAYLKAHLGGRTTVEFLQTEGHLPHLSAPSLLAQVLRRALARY
Description: as §1

[6] = target: T4, DAD2 (Petunia hybrida, UniProt J9U5U9); assay: Enzymatic assay with profluorescent probes, DAD2; assay type: biochemical; settings: protein 0.33 μM, probe 10 μM
T4 construct: GST (N); made in house
T4 sequence (J9U5U9 1-267): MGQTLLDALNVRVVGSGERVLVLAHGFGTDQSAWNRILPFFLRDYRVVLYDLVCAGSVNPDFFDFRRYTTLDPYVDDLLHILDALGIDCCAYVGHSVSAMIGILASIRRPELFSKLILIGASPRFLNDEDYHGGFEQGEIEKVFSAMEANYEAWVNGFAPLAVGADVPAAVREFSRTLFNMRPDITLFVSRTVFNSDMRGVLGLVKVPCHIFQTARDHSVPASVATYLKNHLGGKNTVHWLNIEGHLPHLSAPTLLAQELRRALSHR
Description: as §1

[7] = Stability of CoumarinAc and DiFMUAc (DMSO, PBS); assay type: physicochemical; settings: in PBS and in DMSO (20°C), in comparison to CoumarinAc
Description: Dimethyl sulfoxide (DMSO) solution of the compound to be tested (1 mM) was incubated at 20°C in the HPLC vials. (±)-1-Indanol [Alfa Aesar, purity >97.5% (GC); 10 mM] was used as the internal standard. The samples were subjected to reverse-phase-ultra-performance liquid chromatography (RP-UPLC)-MS analyses by means of UPLC system equipped with a photo diode array (PDA) and a triple quadrupole detector (TQD) mass spectrometer (Acquity UPLC-TQD, Waters). RP-UPLC (HSS C18 column, 1.8 μm, 2.1 × 50 mm) with 0.1% (v/v) of formic acid in CH3CN and 0.1% (v/v) of formic acid in water (aq. FA, 0.1%, v/v, pH 2.8) were used as eluents [10% CH3CN, followed by linear gradient from 10 to 100% of CH3CN (4 min)] at a flow rate of 0.6 ml min^−1. The detection was done by PDA and with the TQD mass spectrometer operated in electrospray ionization-positive mode at 3.2 kV capillary voltage. To maximize the signal, the cone voltage and collision energy were optimized to 20 V and 12 eV, respectively. The collision gas used was argon at a pressure maintained near 4.5 10^−3 mBar. The relative quantity of the remaining (non-degraded) product was determined by integration comparison with the internal standard.

[8] = tested on: ShD14; parameters: method as in Xu et al., 2018; settings: ref Xu et al., 2018; cited from earlier work
[9] = tested on: Arabidopsis SL-deficient mutant max3-11; assay: Hydroponic assay on Arabidopsis, rosette branches; assay type: in vivo, Arabidopsis thaliana; settings: max3-11, hydroponic, 0.5 and 3 μM
Description: The hydroponic assay was adapted from the study by Cornet et al. ([2021]). Seeds were surface-sterilized for 8 min in a solution of ethanol (95%) and hypochlorite solution (10%; Bayrol, Mundolsheim, France) and were rinsed two times with ethanol (100%). Each seed was sown on top of a cut 0.5 ml Eppendorf tube filled with agar medium containing 0.65% of agar and 10% of nutritive solution of 5 mM NO3. Tubes were soaked in water and stored in the dark at 4°C for 2 days. Twelve plants per pipette tip box (13 × 9 × 7 cm) were grown and supplied with nutrient solution as in the study by Boyer et al. ([2014]) at a concentration of 5 ml/L (750 ml of solution per box). Every week, the nutrient solution was renewed and every 10 days one time, a fresh batch of treatment was added to the solution. The first treatment occurred at day 27 after sowing when plants started to bolt. The number of rosette branches was counted at day 42.

[10] = tested on: rms1-10 pea mutant plants; assay: Pea shoot-branching assay by vascular supply, rms1-10; assay type: in vivo, Pisum sativum; settings: rms1-10, 3,000 nM
Description: as §2
The compounds to be tested were applied by vascular supply (Muñoz et al., [2021]). The control was the treatment with 0.1% of DMSO in water. A total of 12 plants were sown per treatment in trays and were treated with probes under node 3 bud generally 10 days after sowing. Compounds in DMSO solution were diluted with water to 3,000 nM for a treatment with 0.1% (v/v) DMSO. The branches at nodes 1 and 2 were removed to encourage the outgrowth of axillary buds at the nodes above. Nodes were numbered acropetally from the first scale leaf as node 1 and cotyledonary node as node 0. Bud growth at nodes 3 and 4 was measured with digital calipers 8–10 days after treatment. Plants with damaged main shoot apex or with a dead white treated-bud were discarded from the analysis. The SL-deficient rms1-10 pea mutant was used for all experiments.

[11] = tested on: Ppccd8 mutant plants; assay: Physcomitrium patens bioassay, number of filaments in the dark; assay type: in vivo; settings: 1 μM
Description: Assays on Physcomitrium patens were performed on plants grown in 24-well plates, starting from very small pieces of moss tissues as described by Guillory and Bonhomme ([2021]). As for pea rms1, the Ppccd8 SL synthesis mutant was used for assays, since the effect of the compounds was better seen in this mutant vs. wild type (WT; Lopez-Obando et al., [2021]). For each treatment, 24 plants were grown in PpNO3 medium [minimal medium described by Ashton et al., [1979]], dispatched in three different plates. Plants were grown for 2 weeks under control conditions, then treated with fluorophores or probes (all compounds used at 1 μM), before being placed vertically in the dark for 10 days. A single picture of each well was taken under an Axio Zoom microscope (Zeiss) with a dedicated program. Filaments were counted using ImageJ software (http://imagej.nih.gov/ij/) as described by Guillory and Bonhomme ([2021]). Twenty-four plants were tested in each treatment.

[12] = tested on: rms3-4 pea mutant plants; assay: Pea shoot-branching assay by direct application on the bud, rms3-4; assay type: in vivo, Pisum sativum; settings: rms3-4, 10 days after treatment
Description: as §2, §3

[13] = tested on: Arabidopsis SL-deficient mutant max3-11; settings: ref de Saint Germain et al., 2016; cited from earlier work
[14] = tested on: Ppccd8 mutant plants; settings: WT and Ppccd8; ref Hoffmann et al., 2014; Lopez-Obando et al., 2021; cited from earlier work

| Structure (SMILES) | Cleavage kinetics by RMS3 [2] | Cleavage of probe by RMS3 [2] | Cleavage of probe by AtD14 [3] | Bioactivity on shoot branching inhibition (bud development) ([4]; rms1-10, direct application) | Cleavage of probe by OsD14 [5] | Cleavage of probe by DAD2 [6] | Length of bud at node 3 /branch ([4]; 10 nM) [mm] | Activity on filament number [11] | other results |
| --- | --- | --- | --- | --- | --- | --- | --- | --- | --- |
| CC1=CC(Oc2c(F)cc3c(C)cc(=O)oc3c2F)OC1=O (racemic) [(±)-GC240] | Two-phase cleavage kinetics; also recorded: blocked at very low concentration | able to cleave | able to cleave | inhibition of bud development; also recorded: less efficient than (±)-GR24 | able to cleave | able to cleave | – | – | Length of bud at node 3 /branch ([1]; 1,000 nM): 2.52 mm; Length of bud at node 3 /branch ([1]; 5,000 nM): 2.61 mm; Affinity of the rice SL receptor suggested by cleavage profile [5]: lower affinity |
| CC(=O)Oc1c(F)cc2c(C)cc(=O)oc2c1F [DiFMUAc] | – | – | – | no effect | – | – | 23.71 | – | Length of bud at node 3 /branch ([4]; 100 nM): 19.75 mm; Length of bud at node 3 /branch ([4]; 1,000 nM): 22.17 mm; Effect on axillary bud ([4]; rms1-10, direct application, 100 nM): significant effect; Stability [7]: poorly stable |
| CCOC(=O)c1ccccc1-c1c2ccc(=O)cc-2oc2cc(OC3C=C(C)C(=O)O3)ccc12 (racemic) [(±)-YLG, reference compound] | – | – | – | inhibition of bud development; also recorded: less efficient than (±)-GR24 | unable to cleave | – | 24.15 | less active | Cleavage by ShD14 [8]: not able to cleave; Bioactivity on number of rosette branches [9]: not bioactive; Bioactivity by vascular supply compared to the coumarin derivatives series [10]: lower bioactivity; Activity on filament number, one bioassay replication ([11]; Supplementary Figure 3): no significant bioactivity |
| CC1=C(C)C(Oc2c(F)cc3c(C)cc(=O)oc3c2F)OC1=O (racemic) [(±)-GC242] | Two-phase cleavage kinetics; also recorded: blocked at very low concentration; also recorded: two-phase kinetic | able to cleave | able to cleave | among the most bioactive molecules | able to cleave | able to cleave | – | confirmed the previous activity | Length of bud at node 3 /branch ([4]; 10,000 nM): 1.77 mm; Length of bud at node 3 /branch ([12]; 1,000 nM): 35.80; Length of bud at node 3 /branch ([12]; 5,000 nM): 33.76; Bioactivity in Arabidopsis [13]: previously found bioactive; Effect on filament number [14]: dose-dependent decrease in the filament number |
